{"source": "patent US8420631B2", "about": "“6-substituted-2,3,4,5-tetrahydro-1H-benzo[d]azepines as 5-HT2C receptor agonists” (Eli Lilly and Company, priority 2005, dated 2013)", "key": {"Wistar rats [1]": {"tested_on": "Wistar rats", "conditions": "general statement on standards; cited from earlier work"}, "male NIH Swiss mice [2]": {"tested_on": "male NIH Swiss mice", "test": "Marble burying assay", "assay_type": "in vivo, mouse", "conditions": "with rotorod performance", "text": "Marble burying in mice has been used to model anxiety disorders including obsessive-compulsive disorders (OCD) due to ethological study of the behavior (e.g. Gyertyan I. “Analysis of the marble burying response: Marbles serve to measure digging rather than evoke burying”, Behavioural Pharmacology 6: 24-31, (1995)) and due to the pharmacological effects of clinical standards (c.f., Njung'E K. Handley S L. “Evaluation of marble-burying behavior as a model of anxiety”, Pharmacology, Biochemistry & Behavior. 38: 63-67, (1991)); Borsini F., Podhorna J., and Marazziti, D. “Do animal models of anxiety predict anxiolytic effects of antidepressants?”, Psychopharmacology 163: 121-141, (2002)).\nHouse experimentally-naïve male, NIH Swiss mice (Harlan Sprague-Dawley, Indianapolis, Ind.) weighing between 28-35 g in groups of 12 for at least three days prior to testing in a vivarium with 12 h light and dark cycles. Conduct experiments during the light cycle in a dimly lit experimental testing room. Dose mice with vehicle or test compound and, after a specified pretreatment interval (generally 30 min.), place each mouse individually on a rotorod (Ugo Basile 7650) operating at a speed of 6 revolutions/min. and observe for falling. […]\nClinically effective standard compounds suppress marble burying at doses that are devoid of motor-impairing effects as measured on the rotorod. […]"}, "Wistar rats [3]": {"tested_on": "Wistar rats", "test": "Schedule-induced polydipsia", "conditions": "rat, in vivo", "text": "Food-deprived rats exposed to intermittent presentations of food will drink amounts of water that are far in excess of their normal daily intake and in excess of their intake when given all of their food at one time (Falk J L. “Production of polydipsia in normal rats by an intermittent food schedule”, Science 133: 195-196, (1961)). This excessive behavior is persistent and has been used to model OCD.\nMaintain Wistar rats on a food restricted diet (to maintain 85% free feeding weight), but with free access to water. Train the rats in a behavioral testing chamber to press a lever to receive a food pellet under a fixed interval schedule, such that the rats are rewarded with a 45 mg food pellet the first time they press a lever after a 120 second interval has elapsed. The fixed interval is then reset to 120 seconds and the process repeated. Thus, during a 90 min. test session, the rats can earn a maximum of 45 pellets. The behavioral chamber is also equipped with a water bottle that is weighed before and after the session to determine the amount of water consumed.\nAdminister test compounds on Tuesdays and Fridays. […] Compare the rates of lever pressing and water consumption for each animal's performance during sessions after test compound treatment with that animal's performance during control sessions, expressed as a percent of the control rate. […]"}, "male NIH Swiss mice [4]": {"tested_on": "male NIH Swiss mice", "test": "Nestlet shredding", "assay_type": "in vivo, mouse", "conditions": "with rotorod / motor effects", "text": "Mice naturally will construct nests of material available in their living environment. Since this behavior is obsessive in nature, it has been used to model OCD (Xia Li, Denise Morrow and Jeffrey M. Witkin, “Decreases in nestlet shredding of mice by serotonin uptake inhibitors: comparison with marble burying”, Psychopharmacology, submitted Jul. 14, 2003). House experimentally-naïve male, NIH Swiss mice (Harlan Sprague-Dawley, Indianapolis, Ind.) weighing between 28-35 g in groups of 12 for at least three days prior to testing in a vivarium with a 12 h light/dark cycle. Conduct experiments during the light cycle in an experimental room with normal overhead fluorescent lighting. Dose mice with vehicle or test compound and after a specified pretreatment interval (generally 30 min.), place the mice individually in a 17×28×12 cm high plastic tub with about 5 mm sawdust shavings on the floor along with a pre-weighed multi-ply gauze pad (51 mm square). After 30 min., weigh the remainder of the gauze pad not removed by the mouse. Determine the weight of the gauze used for nestlet construction by subtraction. Compare the results for test compound treated mice to the results for vehicle control treated mice with Dunnett's test.\nClinically effective OCD treatment standard compounds suppress nestlet shredding at doses that are devoid of motor-impairing effects as measured by the rotorod test. […]"}, "male NIH Swiss mice [5]": {"tested_on": "male NIH Swiss mice", "conditions": "background statement; cited from earlier work"}}, "data": [{"smiles": "CN(C)CCCN1c2ccccc2CCc2ccc(Cl)cc21", "note": "[chlomipramine]", "values": [{"measurement": "schedule-induced polydipsia, clinically effective OCD standard compounds", "setting": "Wistar rats [1]", "value": "suppress schedule-induced polydipsia without producing notable changes in motor patterns, food intake, or behavior the following day"}]}, {"smiles": "CN(C)CCCN1c2ccccc2Sc2ccc(Cl)cc21", "note": "[chlorpromazine]", "values": [{"measurement": "marble burying behavior", "setting": "male NIH Swiss mice [2]", "value": "decrease marble burying only at doses that also disrupt rotorod performance"}]}, {"smiles": "C[C@H](N)Cc1ccccc1", "note": "[d-amphetamine]", "values": [{"measurement": "schedule-induced polydipsia (excessive drinking)", "setting": "Wistar rats [3]", "value": "decreases excessive drinking only at behaviorally stimulating doses"}, {"measurement": "suppression of excessive drinking with co-administration of the 5-HT2C antagonist", "setting": "Wistar rats [3]", "value": "not prevented"}, {"measurement": "nestlet shredding", "setting": "male NIH Swiss mice [4]", "value": "decreases nestlet shredding only at doses that produce motoric side effects"}]}, {"smiles": "CNCCC(Oc1ccc(C(F)(F)F)cc1)c1ccccc1", "note": "(stereo not shown) [fluoxetine]", "values": [{"measurement": "schedule-induced polydipsia, clinically effective OCD standard compounds", "setting": "Wistar rats [1]", "value": "suppress schedule-induced polydipsia without producing notable changes in motor patterns, food intake, or behavior the following day"}, {"measurement": "marble burying (literature)", "setting": "male NIH Swiss mice [5]", "value": "decrease burying"}]}]}
